Experiment: method code SF-AS, from DOI: 10.1177/1934578x0700201005
Conditions: pH 7.4

logD	Structure (SMILES)
2.98	COc1cccc2oc(-c3ccccc3)cc(=O)c12
3.12	COc1ccc2c(=O)cc(-c3ccccc3)oc2c1
3.03	O=c1cc(-c2cccc(O)c2)oc2ccccc12
3.39	O=c1cc(-c2ccccc2)oc2cccc(O)c12
3.18	COc1c(-c2ccccc2)oc2ccccc2c1=O
3.26	COc1cccc(-c2cc(=O)c3ccccc3o2)c1
3.14	COc1ccccc1-c1cc(=O)c2ccccc2o1
3.52	O=c1c(O)c(-c2ccccc2)oc2ccccc12
3.01	O=c1cc(-c2ccccc2O)oc2ccccc12
3.03	O=c1cc(-c2ccccc2)oc2c(O)cccc12
3.21	COc1ccc(-c2cc(=O)c3ccccc3o2)cc1
2.9	COc1ccc2c(=O)cc(-c3ccccc3)oc2c1O
3.22	COc1ccc2oc(-c3ccccc3)cc(=O)c2c1
